{"source": "patent US12528774B2", "about": "“Thiosemicarbazone compounds and uses thereof” (The Regents of the University of California, priority 2019, dated 2026)", "key": {"MIAPACA2 cells": {"tested_on": "MIAPACA2 cells", "experiment": "Mito Stress Test (oxygen consumption rate, Seahorse)", "assay_type": "cell-based, human", "settings": "HCT13 25 nM + Cu(II) 20 μM, 24 h", "method": "FIG. 3A: Mito Stress Test of MIAPACA2 PDAC cells treated with HCT13 (25 nM)+Cu(II) (20 μM) for 24h. FIG. 3B: electron flow assay in isolated mitochondria treated with HCT-13 (100 nM)+Cu(II) (20 μM) for 1h. FIG. 3C: viability of 143 BTK parental (wild type, WT) and ρ0 cells after 48h of the indicated HCT13 concentration+Cu(II) (20 μM) treatment, assessed with Trypan Blue Staining. FIG. 3D: 48h cell cycle histogram and plots of S-phase arrest plots in 143 BTK WT and 143 BTK ρ0 cells at 24, 48 and 72h following treatment with indicated concentrations of HCT13+Cu(II)(20 μM). (mean±SD, n=2, one-way ANOVA corrected for multiple comparisons by Bonferroni adjustment, * P<0.05; ** P<0.01; *** P<0.001). […]\nMito Stress Test and Electron Flow Assay: All oxygen consumption rate (OCR) was measured using a XF24 Analyzer (Agilent) and normalized per μg protein. […] OCR was measured before (total respiration) and after the sequential injection of 1 μM oligomycin (complex V inhibitor), 0.75 μM FCCP (uncoupler), and 1 μM of rotenone and myxothiazol (complex I and III inhibitors, respectively), as described previously (1). Mitochondrial respiration was calculated by subtracting the non-mitochondrial respiration left after rotenone and myxothiazol injection. […] OCR was measured before and after the sequential injections described in the previous paragraph. […]"}, "143 BTK ρ0 cells": {"tested_on": "143 BTK ρ0 cells", "experiment": "Viability (trypan blue) and cell cycle in 143 BTK ρ0 cells", "assay_type": "cell-based", "settings": "HCT13 + 20 μM Cu(II), 48 hours", "method": "FIG. 3A: Mito Stress Test of MIAPACA2 PDAC cells treated with HCT13 (25 nM)+Cu(II) (20 μM) for 24h. FIG. 3B: electron flow assay in isolated mitochondria treated with HCT-13 (100 nM)+Cu(II) (20 μM) for 1h. FIG. 3C: viability of 143 BTK parental (wild type, WT) and ρ0 cells after 48h of the indicated HCT13 concentration+Cu(II) (20 μM) treatment, assessed with Trypan Blue Staining. FIG. 3D: 48h cell cycle histogram and plots of S-phase arrest plots in 143 BTK WT and 143 BTK ρ0 cells at 24, 48 and 72h following treatment with indicated concentrations of HCT13+Cu(II)(20 μM). (mean±SD, n=2, one-way ANOVA corrected for multiple comparisons by Bonferroni adjustment, * P<0.05; ** P<0.01; *** P<0.001).\nAnother HCT compound, Dp44mT, was reported to increase AMPK expression and induce ROS, although its cytotoxicity was not attributed to the functionality of the mitochondria. (Ref 50). […] Both 143 BTK ρ0 and parental (wild type, WT) cells were treated with HCT13+20 μM Cu(II) for 48 hours, after which cell viability was determined through trypan blue staining (FIG. 3C).\nViability/Apoptosis assay: Viable cells were measured by Trypan blue staining using vi-cell counter (Beckman Coulter, CA, USA). […]\nCell cycle: Cell cycle was assessed using Propidium iodide staining at indicated timepoints. […]"}, "[1]": {"tested_on": "normal human epithelial cell line HPDE", "experiment": "Proliferation assay in normal epithelial cell line HPDE", "assay_type": "cell-based", "method": "Serum copper levels are elevated (>20 μM) in individuals with solid tumor types such as pancreatic ductal adenocarcinoma (PDAC), small cell lung carcinoma (SCLC), and prostate cancer (PC). (Refs. 43-48). These cancers rely upon elevated copper levels to sustain growth, making this transition metal a viable target for therapeutic modulation. (Ref 34).\nProliferation assay: Cells were plated in 384-well plates (500 cells/well for adherent cell lines in 30 μl volume). Drugs were serially diluted to the desired concentrations and an equivalent volume of DMSO was added to vehicle control. Following 72 h incubation, ATP content was measured using CellTiter-Glo reagent according to manufacturer's instructions (Promega, CellTiter-Glo Luminescent Cell Viability Assay), and analyzed by SpectraMax luminometer (Molecular Devices). IC50 and IC90 values, concentrations required to inhibit proliferation by 50% and 90% respectively compared to DMSO treated cells, were calculated using Prism 6.0 h (Graphpad Software)."}}}
{"smiles": "CN(C)C(=S)N/N=C/c1nccc2cc(F)ccc12", "note": "(mixture of isomers) [HCT13, (E)-2-((6-Fluoroisoquinolin-1-yl)methylene)-N,N-dimethylhydrazine-1-carbothioamide and (Z)-2-((6-Fluoroisoquinolin-1-yl)methylene)-N,N-dimethylhydrazine-1-carbothioamide]", "values": [{"measurement": "basal respiration and maximum respiratory capacity (OCR)", "setting": "MIAPACA2 cells", "value": "significantly reduced"}, {"measurement": "basal respiration and maximum respiratory capacity (OCR)", "setting": "MIAPACA2 cells; listed as HCT-13", "value": "decreased significantly"}, {"measurement": "sensitivity of ρ0 cells compared to WT (viability)", "setting": "143 BTK ρ0 cells", "value": "significantly less sensitive"}, {"measurement": "sensitivity of normal cells versus cancer models", "setting": "[1]", "value": "markedly more resistant"}]}
